One molecule from patent US6482402B1, “Antimicrobial compositions and methods” (GelTex Pharmaceuticals, Inc., priority 1999, dated 2002) can be followed below.

Experiment [1] concerns C. parvum oocysts. The experiment can be described thus: In vitro C. parvum infectivity in Madin Darby Bovine Kidney cells (fluorescent antibody count of infected cells). It counts as cell-based, Cryptosporidium parvum. The conditions noted are these: MDBK cells, 46 hours of infection, means of 12 high powered fields. As to the method:
Activity of polyfensin compounds for Cryptosporidium parvum in vitro. Combination therapy of Polymer B with paromomycin Madin Darby Bovine Kidney cells were infected with C. parvum oocysts in the presence of media alone, paromomycin (2 and 0.25 mg/ml), Polymer B (0.01 or 0.001 mg/ml) or Polymer B (0.01 or 0.001 mg/ml) plus paromomycin at 0.25 mg/ml. After 4 hours of treatment, polymer was removed and replaced with media. After 46 hours of infection the monolayers were fixed, stained with fluorescent antibodies to cryptosporidium, and the numbers of infected cells were enumerated. Parasite numbers represent the means of 12 high powered fields, and numbers of parasites were normalized relative to treatment with media alone (arbitrarily set at 100). […] In vitro Combination therapy of Polymer A with paromomycin. Madin Darby Bovine kidney cells were infected with C. parvum oocysts in the presence of media alone, paromomycin (2 and 0.25 mg/ml), Polymer A (0.01 or 0.001 mg/ml) or Polymer A (0.0 1 or 0.00 1 mg/ml plus paromomycin at 0.25 mg/ml). After 4 hours of treatment, polymer was removed and replaced with media. After 46 hours of infection the monolayers were fixed, stained with fluorescent antibodies to cryptosporidium, and the numbers of infected cells were enumerated. Parasite numbers represent the means of 12 high powered fields, and numbers of parasites were normalized relative to treatment with media alone (arbitrarily set at 100).

The subject of experiment [2] is C. parvum oocysts. As to the kind of experiment: In vivo oocyst shedding in C. parvum infected SCID mice. As to conditions: SCID mice infected day 0; prm alone 500 mg/kg/day by oral gavage from day 7; fecal smears, acid fast staining; water alone 25. How it is done:
In vivo activity of selected polymers in combination with parmomycin
Severe combined immunodeficient mice (SCID) were infected with C. parvum oocysts on day 0. On day 7, mice were treated with water or Polymers A, E and D by delivery in maple flavored drinking water at 2000 mg/kg/day. For each treatment, mice additionally received water or 500 mg/kg/day paromomycin (prm) by oral gavage. Oocyst shedding was quantitated in fecal smears by acid fast staining. Average numbers of oocysts shed were as follows: Treatment with water alone, 25; treatment with prm alone 12. Treatment with polymers alone gave modest changes in oocysts shedding and ranged from ˜20% reduction in oocysts; to a ˜20% increase in shedding, relative to treatment with water alone. Combination of polymers with prm gave reductions in oocysts in the range of 50-90% relative to treatment with prm alone.

Each structure is given as a SMILES string. Values joined by “and” are separate entries in the source; they are usually repeats but may differ in a detail not shown here. Equal entries are not always repeated.

With `NC[C@@H]1O[C@H](O[C@H]2[C@@H](O)[C@H](O[C@@H]3[C@@H](O)[C@H](N)C[C@H](N)[C@H]3O[C@H]3O[C@H](CO)[C@@H](O)[C@H](O)[C@H]3N)O[C@@H]2CO)[C@H](N)[C@@H](O)[C@@H]1O` [paromomycin], the “parasite numbers normalized relative to treatment with media alone (arbitrarily set at 100)” value was 61.5 and 73.0 in the experiment with C. parvum oocysts [1] (paromomycin alone at 0.25 mg/ml); 15.3 with C. parvum oocysts [1] (paromomycin alone at 2 mg/ml); 15.4 in the experiment on C. parvum oocysts [1] (paromomycin alone at 2 mg/ml, listed as parmomycin). Further, the “Average numbers of oocysts shed” value in the experiment on C. parvum oocysts [2] was determined as 12.
